In patent US9956293B2, “Targeted therapeutics” (Madrigal Pharmaceuticals, Inc., priority 2014, dated 2018):

Each compound was assayed on HER2 (assay: HER2 degradation assay with BT-474 cell line (Example 12, FACS)). Conditions: Homo sapiens, BT-474; SDC-TRAPs of the 41st table.
Type: cell-based
Excerpt: HER2 Degradation Assay with BT-474 Cell Line
HER2 has emerged as a key target for anticancer drugs due to its intrinsic involvement in the phosphatidylinositol-3-kinase-Akt/protein kinase B (PI3K-Akt) and the mitogen-activated protein kinase (MAPK) pathways, both of which suppress apoptosis and promote tumor cell survival, gene transcription, angiogenesis, cellular proliferation, migration, mitosis, and differentiation. The degradation of HER2 is a measure of efficacy of anticancer therapeutics that target Hsp90. Accordingly, the SDC-TRAP molecules of the invention that comprise a binding moiety that binds Hsp90 were tested in the following HER2 degradation assay.
BT-474 cells (human breast cancer cell line ATCC HTB-20) were obtained from ATCC and seeded into 12-well tissue culture plates at 0.2×10^6/1.8 mL/well. […] Each test compound was titrated in 4-fold dilutions from 5 μM to 78 nM with DMSO and 200 μL of the titration was added to each well of the cell plate. The DMSO final concentration was 0.2%. Cells were incubated overnight at 37° C. in 5% CO2.
Media was decanted from the plate, cells were washed 1× in PBS. 400 μL trypsin (EDTA) per well was added, and the cells were incubated for 2 to 3 minutes. Cells were collected into FACS tubes containing 1 ml culture medium to neutralize the trypsin and were centrifuged for 5 minutes at 1200 rpm. Supernatant was decanted and the cells were resuspended in 5 μL FITC (anti HER2/nu)/200 μL staining buffer (1×PBS+1% FBS+0.05% Sodium Azide)/tube. Controls were […] IgG isotype control and staining buffer only. Tubes were incubated for 30 minutes in the dark at room temperature. 1 mL staining buffer was added to each tube and the tubes were centrifuged for 6 minutes at 1200 rpm. The supernatant was decanted and 300 μL staining buffer was added to each tube, which was store at 4° C. for FACS (cytometer) analysis. The cytometer readout was normalized and the potency of each compound is evaluated with IC50 calculated with XLfit™ software.

| SMILES | IC50 [nM] |
| --- | --- |
| CC(C)c1cc(-c2nnc(O)n2-c2ccc(CN3CCN(C(=O)c4ccc(CCc5c[nH]c6nc(N)[nH]c(=O)c56)cc4)CC3)cc2)c(O)cc1O [SDC-TRAP-0068, 2-amino-5-(4-(4-(4-(3-(2,4-dihydroxy-5-isopropylphenyl)-5-hydroxy-4H-1,2,4-triazol-4-yl)benzyl)piperazine-1-carbonyl)phenethyl)-3H-pyrrolo[2,3-d]pyrimidin-4(7H)-one] | 262 |
| CC(C)c1cc(-c2nnc(O)n2-c2ccc(CN3CCN(C(=O)c4ccc(CCc5c[nH]c6nc(N)[nH]c(=O)c56)cc4)CC3)c(F)c2)c(O)cc1O [SDC-TRAP-0078, 2-amino-5-(4-(4-(4-(3-(2,4-dihydroxy-5-isopropylphenyl)-5-hydroxy-4H-1,2,4-triazol-4-yl)-2-fluorobenzyl)piperazine-1-carbonyl)phenethyl)-3H-pyrrolo[2,3-d]pyrimidin-4(7H)-one] | 1000 |
| CC(C)c1cc(-c2nnc(O)n2-c2ccc(N3CCN(C(=O)c4ccc(CCc5c[nH]c6nc(N)[nH]c(=O)c56)cc4)CC3)cc2)c(O)cc1O [SDC-TRAP-0082, 2-amino-5-(4-(4-(4-(3-(2,4-dihydroxy-5-isopropylphenyl)-5-hydroxy-4H-1,2,4-triazol-4-yl)phenyl)piperazine-1-carbonyl)phenethyl)-3H-pyrrolo[2,3-d]pyrimidin-4(7H)-one] | 1040 |

More lines, now with the values ahead:

| IC50 [nM] | SMILES |
| --- | --- |
| > 5000 | CC(C)c1cc(-c2nnc(O)n2-c2ccc3c(c2)CN(C(=O)c2ccc(CCc4c[nH]c5nc(N)[nH]c(=O)c45)cc2)C3)c(O)cc1O [SDC-TRAP-0093, 2-amino-5-(4-(5-(3-(2,4-dihydroxy-5-isopropylphenyl)-5-hydroxy-4H-1,2,4-triazol-4-yl)isoindoline-2-carbonyl)phenethyl)-3H-pyrrolo[2,3-d]pyrimidin-4(7H)-one] |
| > 5000 | CC(C)c1cc(-c2nnc(O)n2-c2ccc3c(c2)nc(C2CCN(C(=O)c4ccc(CCc5c[nH]c6nc(N)[nH]c(=O)c56)cc4)CC2)n3C)c(O)cc1O [SDC-TRAP-0102, 2-amino-5-(4-(4-(5-(3-(2,4-dihydroxy-5-isopropylphenyl)-5-hydroxy-4H-1,2,4-triazol-4-yl)-1-methyl-1H-benzo[d]imidazol-2-yl)piperidine-1-carbonyl)phenethyl)-3H-pyrrolo[2,3-d]pyrimidin-4(7H)-one] |
| 245 | CC(C)c1cc(-c2nnc(O)n2-c2ccc(CC3CCN(CC4CCN(C(=O)c5ccc(CCc6c[nH]c7nc(N)[nH]c(=O)c67)cc5)CC4)CC3)cc2)c(O)cc1O [SDC-TRAP-0103, 2-amino-5-(4-(4-((4-(4-(3-(2,4-dihydroxy-5-isopropylphenyl)-5-hydroxy-4H-1,2,4-triazol-4-yl)benzyl)piperidin-1-yl)methyl)piperidine-1-carbonyl)phenethyl)-3H-pyrrolo[2,3-d]pyrimidin-4(7H)-one] |

Same assay, conditions: Homo sapiens, BT-474; SDC-TRAPs of the 43rd table

| SMILES | IC50 [nM] |
| --- | --- |
| CCc1c2c(nc3ccc(O)cc13)-c1cc3c(c(=O)n1C2)COC(=O)C3(CC)OC(=O)N(C)CCCCN1CCN(Cc2ccc(-n3c(O)nnc3-c3cc(C(C)C)c(O)cc3O)cc2)CC1 (stereo not shown) [SDC-TRAP-0055, 4,11-diethyl-9-hydroxy-3,14-dioxo-3,4,12,14-tetrahydro-1H-pyrano[3′,4′:6,7]indolizino[1,2-b]quinolin-4-yl (4-(4-(4-(3-(2,4-dihydroxy-5-isopropylphenyl)-5-hydroxy-4H-1,2,4-triazol-4-yl)benzyl)piperazin-1-yl)butyl)(methyl)carbamate] | 402 |
| CCc1c2c(nc3ccc(OCCN4CCN(c5ccc(-n6c(O)nnc6-c6cc(C(C)C)c(O)cc6O)cc5)CC4)cc13)-c1cc3c(c(=O)n1C2)COC(=O)C3(O)CC (stereo not shown) [SDC-TRAP-0057, 9-(2-(4-(4-(3-(2,4-dihydroxy-5-isopropylphenyl)-5-hydroxy-4H-1,2,4-triazol-4-yl)phenyl)piperazin-1-yl)ethoxy)-4,11-diethyl-4-hydroxy-1H-pyrano[3′,4′:6,7]indolizino[1,2-b]quinoline-3,14(4H,12H)-dione] | 449 |
| CCc1c2c(nc3ccc(OCCn4ccc5cc(-n6c(O)nnc6-c6cc(C(C)C)c(O)cc6O)ccc54)cc13)-c1cc3c(c(=O)n1C2)COC(=O)C3(O)CC (stereo not shown) [SDC-TRAP-0058, 9-(2-(5-(3-(2,4-dihydroxy-5-isopropylphenyl)-5-hydroxy-4H-1,2,4-triazol-4-yl)-1H-indol-1-yl)ethoxy)-4,11-diethyl-4-hydroxy-1H-pyrano[3′,4′:6,7]indolizino[1,2-b]quinoline-3,14(4H,12H)-dione] | 2930 |
| CCc1c2c(nc3ccc(OCC(=O)N4CCN(Cc5ccc(-n6c(O)nnc6-c6cc(C(C)C)c(O)cc6O)cc5)CC4)cc13)-c1cc3c(c(=O)n1C2)COC(=O)C3(O)CC (stereo not shown) [SDC-TRAP-0077, 9-(2-(4-(4-(3-(2,4-dihydroxy-5-isopropylphenyl)-5-hydroxy-4H-1,2,4-triazol-4-yl)benzyl)piperazin-1-yl)-2-oxoethoxy)-4,11-diethyl-4-hydroxy-1H-pyrano[3′,4′:6, 7]indolizino[1,2-b]quinoline-3,14(4H,12H)-dione] | 2790 |

Same assay, conditions: Homo sapiens, BT-474; SDC-TRAPs of the 52nd table

| IC50 [nM] | SMILES |
| --- | --- |
| 677 | COc1ccc(-c2cnoc2-c2cc(OC)c(OC)c(OC)c2)cc1OC(=O)N1CCN(c2ccc(-n3c(O)nnc3-c3cc(C(C)C)c(O)cc3O)cc2)CC1 [SDC-TRAP-0099, 2-methoxy-5-(5-(3,4,5-trimethoxyphenyl)isoxazol-4-yl)phenyl-4-(4-(3-(2,4-dihydroxy-5-isopropylphenyl)-5-hydroxy-4H-1,2,4-triazol-4-yl)phenyl)piperazine-1-carboxylate] |

Same assay, conditions: Homo sapiens; BT-474 cells

| SMILES | IC50 [nM] |
| --- | --- |
| CC(C)c1cc(-c2nnc(O)n2-c2ccc3c(ccn3CCNC(=O)Cn3cc(F)c(=O)[nH]c3=O)c2)c(O)cc1O [SDC-TRAP-0013, N-(2-(5-(3-(2,4-dihydroxy-5-isopropylphenyl)-5-hydroxy-4H-1,2,4-triazol-4-yl)-1H-indol-1-yl)ethyl)-2-(5-fluoro-2,4-dioxo-3,4-dihydropyrimidin-1(2H)-yl) acetamide] | > 5000 |
| CC(C)c1cc(-c2nnc(O)n2-c2ccc3c(ccn3CCOCCNC(=O)CCn3cc(F)c(=O)[nH]c3=O)c2)c(O)cc1O [SDC-TRAP-0048, N-(2-(2-(5-(3-(2,4-dihydroxy-5-isopropylphenyl)-5-hydroxy-4H-1,2,4-triazol-4-yl)-1H-indol-1-yl)ethoxy)ethyl)-3-(5-fluoro-2,4-dioxo-3,4-dihydropyrimidin-1(2H)-yl)propanamide] | > 5000 |
| CC(C)c1cc(-c2nnc(O)n2-c2ccc(CN3CCN(C(=O)CCn4cc(F)c(=O)[nH]c4=O)CC3)cc2)c(O)cc1O [SDC-TRAP-0049, 1-(3-(4-(4-(3-(2,4-dihydroxy-5-isopropylphenyl)-5-hydroxy-4H-1,2,4-triazol-4-yl)benzyl)piperazin-1-yl)-3-oxopropyl)-5-fluoropyrimidine-2,4(1H,3H)-dione] | > 5000 |
| CC(C)c1cc(-c2nnc(O)n2-c2ccc3c(ccn3CCOCCN(C)C(=O)CCn3cc(F)c(=O)[nH]c3=O)c2)c(O)cc1O [SDC-TRAP-0050, N-(2-(2-(5-(3-(2,4-dihydroxy-5-isopropylphenyl)-5-hydroxy-4H-1,2,4-triazol-4-yl)-1H-indol-1-yl)ethoxy)ethyl)-3-(5-fluoro-2,4-dioxo-3,4-dihydropyrimidin-1(2H)-yl)-N-methylpropanamide] | > 5000 |
| CC(C)c1cc(-c2nnc(O)n2-c2ccc3c(ccn3CCN(C)C(=O)CCn3cc(F)c(=O)[nH]c3=O)c2)c(O)cc1O [SDC-TRAP-0051, N-(2-(5-(3-(2,4-dihydroxy-5-isopropylphenyl)-5-hydroxy-4H-1,2,4-triazol-4-yl)-1H-indol-1-yl)ethyl)-3-(5-fluoro-2,4-dioxo-3,4-dihydropyrimidin-1(2H)-yl)-N-methylpropanamide] | > 5000 |

Next, values leading:

| IC50 [nM] | SMILES |
| --- | --- |
| > 10000 | CC(C)c1cc(-c2nnc(O)n2-c2ccc(CN3CCN(CCN(C)C(=O)Nc4cccc5c4CN(C4CCC(=O)NC4=O)C5=O)CC3)cc2)c(O)cc1O (stereo not shown) [SDC-TRAP-0105, 1-(2-(4-(4-(3-(2,4-dihydroxy-5-isopropylphenyl)-5-hydroxy-4H-1,2,4-triazol-4-yl)benzyl)piperazin-1-yl)ethyl)-3-(2-(2,6-dioxopiperidin-3-yl)-1-oxoisoindolin-4-yl)-1-methylurea] |
| > 10000 | CC(C)c1cc(-c2nnc(O)n2-c2ccc(CCC3CCN(C(=O)Nc4cccc5c4CN(C4CCC(=O)NC4=O)C5=O)CC3)cc2)c(O)cc1O (stereo not shown) [SDC-TRAP-0108, 4-(4-(3-(2,4-dihydroxy-5-isopropylphenyl)-5-hydroxy-4H-1,2,4-triazol-4-yl)phenethyl)-N-(2-(2,6-dioxopiperidin-3-yl)-1-oxoisoindolin-4-yl) piperidine-1-carboxamide] |
| > 10000 | CC(C)c1cc(-c2nnc(O)n2-c2ccc(CN3CCN(C(=O)Nc4cccc5c4CN(C4CCC(=O)NC4=O)C5=O)CC3)cc2)c(O)cc1O (stereo not shown) [SDC-TRAP-0109, 4-(4-(3-(2,4-di hydroxy-5-isopropylphenyl)-5-hydroxy-4H-1,2,4-triazol-4-yl)benzyl)-N-(2-(2,6-dioxopiperidin-3-yl)-1-oxoisoindolin-4-yl)piperazine-1-carboxamide] |
